Results published in patent EP2857388A1, “Azoles containing sulfone” (Grünenthal GmbH, priority 2013, dated 2015).

target: T1, human B1R (Homo sapiens, UniProt P46663); assay: Functional assay at bradykinin receptor 1 (B1R): Ca2+ fluorescence (Fluo-4) in FLIPR/Novostar, antagonist mode; type: cell-based; details: test substance 10 µM; CHO K1 cells stably transfected with human B1R gene (hB1R-Zellen); agonist Lys-Des-Arg9-Bradykinin at EC80; % inhibition relative to maximal achievable inhibition; read-out: % Inhibierung (human B1R) bei 10 µM
T1 construct: expressed in transfected cells; host or cells: CHO K1 cells (Chinese Hamster Ovary), stably transfected
T1 sequence (P46663 1-353): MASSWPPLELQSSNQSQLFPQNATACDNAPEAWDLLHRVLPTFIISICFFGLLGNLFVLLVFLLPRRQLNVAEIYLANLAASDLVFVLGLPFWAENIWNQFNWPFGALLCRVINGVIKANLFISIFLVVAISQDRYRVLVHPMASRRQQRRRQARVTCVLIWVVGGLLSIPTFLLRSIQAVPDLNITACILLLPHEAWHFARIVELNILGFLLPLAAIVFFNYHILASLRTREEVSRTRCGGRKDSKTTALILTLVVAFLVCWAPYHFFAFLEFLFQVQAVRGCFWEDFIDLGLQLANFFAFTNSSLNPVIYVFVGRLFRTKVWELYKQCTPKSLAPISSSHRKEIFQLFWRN
Method: Die agonistische bzw. antagonistische Wirkung von Substanzen kann am Bradykinin Rezeptor 1 (B1R) der Spezies Mensch und Ratte mit ektopisch exprimierenden Zelllinien (CHO K1 Zellen) und mit Hilfe eines Ca^2+-sensitiven Farbstoffs (Fluo-4) im Fluorescent Imaging Plate Reader (FLIPR) quantifiziert werden. Die Angabe in % Aktivierung wird bezogen auf das Ca^2+-Signal nach Zugabe von Lys-Des-Arg^9-Bradykinin ([…]), bzw. Des-Arg^9-Bradykinin (100 nM). Antagonisten führen zu einer Unterdrückung des Ca^2+-Einstroms nach der Zugabe des Agonisten. Angegeben werden % Inhibition im Vergleich zu der maximal erreichbaren Inhibition.
Die agonistische bzw. antagonistische Wirkung von Substanzen kann am Bradykinin Rezeptor 1 (B1R) der Spezies Mensch und Ratte mit folgendem Assay bestimmt werden. Gemäß diesem Assay wird der intrazelluläre Ca^2+-Anstieg nach Gabe eines B1 R Agonisten mit Hilfe eines Ca^2+-sensitiven Farbstoffs (Typ Fluo-4, Molecular Probes Europe BV, Leiden NL) im Fluorescent Imaging Plate Reader (FLIPR, Molecular Devices, Sunnyvale, USA) und/oder im Novostar (BMG Labtech GmbH, Offenburg, DE) quantifiziert.
Es werden Chinese Hamster Ovary Zellen (CHO K1 Zellen) verwendet, die stabil mit dem humanen B1 R-Gen (hB1R-Zellen) bzw. dem B1 R-Gen der Ratte (rB1R-Zellen) transfiziert sind. Für funktionelle Untersuchungen werden diese Zellen auf schwarze 96-Loch-Platten mit klarem Boden (BD Biosciences, Heidelberg, DE oder Greiner, Frickenhausen, DE) in einer Dichte von 20.000 - 35.000 Zellen/Loch ausplattiert. Über Nacht werden die Zellen bei 37°C und 5 % CO2 in Kulturmedium (hB1 R-Zellen: Nutrient Mixture Ham's F12, Gibco Invitrogen GmbH, Karlsruhe, Deutschland oder DMEM, Sigma-Aldrich, Taufkirchen, Deutschland; rB1R-Zellen: D-MEM/F12, Gibco Invitrogen GmbH, Karlsruhe, DE) mit 10 Vol-% FBS (Fetal bovine serum, Gibco Invitrogen GmbH, Karlsruhe, DE oder PAN Biotech GmbH, Aidenbach, DE) belassen. Am folgenden Tag werden die Zellen mit 2,13 µM Fluo-4 (Molecular Probes Europe BV, Leiden, NL) in HBSS-Puffer (Hank's buffered saline solution, Gibco Invitrogen GmbH, Karlsruhe, DE) mit 2,5 mM Probenecid (Sigma-Aldrich, Taufkirchen, DE) und 10 mM HEPES (Sigma-Aldrich, Taufkirchen, DE) für 60 min bei 37°C beladen. Anschließend werden die Platten 2 x mit HBSS-Puffer gewaschen und mit HBSS-Puffer versetzt, der zusätzlich 0,1 % BSA (bovines Serumalbumin; Sigma-Aldrich, Taufkirchen, Deutschland), 5,6 mM Glucose und 0,05 % Gelatine (Merck KGaA, Darmstadt, DE) enthält. Nach einer weiteren Inkubation von 20 Minuten bei RT werden die Platten zur Ca^2+-Messung im FLIPR oder Novostar eingesetzt. Alternativ wird mit Puffer A (15 mM HEPES, 80 mM NaCl, 5 mM KCI, 1,2 mM CaCl2, 0,7 mM MgSO4, 2g/L Glucose, 2,5 mM Probenecid) gewaschen und mit Puffer A versetzt mit 2,5 µM Fluo-4 und 0,025 % Pluronic F127 (Sigma-Aldrich, Taufkirchen, DE) beladen. Danach werden die Zellen 2 x mit Puffer A gewaschen und für 30 Minuten mit Puffer A, der zusätzlich 0,05 % BSA und 0,05 % Gelatine enthält bei RT inkubiert und danach zur Ca^2+-Messung im FLIPR oder Novostar eingesetzt.
Die Ca^2+-abhängige Fluoreszenz wird dabei vor und nach Zugabe von Substanzen gemessen (λex = 488 nm, λem = 540 nm). Die Quantifizierung erfolgt durch die Messung der höchsten Fluoreszenzintensität (FC, Fluorescence Counts) über die Zeit.
Das FLIPR-Protokoll besteht aus 2 Substanzzugaben, die im FLIPR pipettiert werden. Bei Messungen im Novostar wird nur die zweite Substanzzugabe im Gerät pipettiert. Beide Geräte messen die Fluoreszenzintensität über die Zeit. Zunächst werden Testsubstanzen (10 µM) auf die Zellen pipettiert und der intrazelluläre Ca^2+-Anstieg mit der Kontrolle (hB1 R: Lys-Des-Arg^9-Bradykinin >= 50 nM; rB1 R: Des-Arg^9-Bradykinin >= 1 µM) verglichen. Daraus ergibt sich die Angabe in % Aktivierung bezogen auf das Ca^2+-Signal nach Zugabe von Lys-Des-Arg^9-Bradykinin (>= 50 nM), bzw. Des-Arg^9-Bradykinin (>=1 µM). Nach 6-20 Minuten Inkubation werden Lys-Des-Arg^9-Bradykinin (hB1 R) bzw. […]

First: Cc1cc(S(=O)(=O)Cc2noc(C(=O)NC3CCC(N(C)C)CC3)n2)c(C)cc1Cl (stereo not shown) [CC-13, 3-[[(4-Chlor-2,5-dimethyl-phenyl)sulfonyl]-methyl]-N-(4-dimethylamino-cyclohexyl)-[1,2,4]oxa-diazol-5-carbonsäure amid]
Second: Cc1cc(S(=O)(=O)Cc2noc(C(=O)NC3CCNCC3(C)C)n2)c(C)cc1Cl (stereo not shown) [CC-24, 3-[[(4-Chlor-2,5-dimethyl-phenyl)sulfonyl]-methyl]-N-(3,3-dimethyl-piperidin-4-yl)-[1,2,4]oxadiazol-5-carbonsäure amid]
The inhibition at 10 µM of the first is higher: 99% for the first, 86% for the second.

`Cc1cccc(Cl)c1S(=O)(=O)Cc1noc(C(=O)N(C)CCC2CCN(c3ccncc3)CC2)n1` [CC-14, 3-[[(2-Chlor-6-methyl-phenyl)sulfonyl]-methyl]-N-methyl-N-[2-(1-pyridin-4-yl-piperidin-4-yl)-ethyl]-[1,2,4]oxadiazol-5-carbonsäure amid] and `Cc1cc(S(=O)(=O)Cc2noc(C(=O)N(C)CCC3CCN(c4ccncc4)CC3)n2)c(C)cc1Cl` [CC-16, 3-[[(4-Chlor-2,5-dimethyl-phenyl)sulfonyl]-methyl]-N-methyl-N-[2-(1-pyridin-4-yl-piperidin-4-yl)-ethyl]-[1,2,4]oxadiazol-5-carbonsäure amid] are the same in inhibition at 10 µM: 100% for the first, 100% for the second.

`COc1cc(C)c(S(=O)(=O)Cc2noc(C(=O)NC3CCNCC3(C)C)n2)c(C)c1` (stereo not shown) [CC-17, N-(3,3-Dimethyl-piperidin-4-yl)-3-[[(4-methoxy-2,6-dimethyl-phenyl)sulfonyl]-methyl]-[1,2,4]oxa-diazol-5-carbonsäure amid] and `COc1cc(C)c(S(=O)(=O)Cc2noc(CC(=O)NC3CCNCC3(C)C)n2)c(C)c1` (stereo not shown) [CC-18, N-(3,3-Dimethyl-piperidin-4-yl)-2-[3-[[(4-methoxy-2,6-dimethyl-phenyl)sulfonyl]-methyl]-[1,2,4]oxadiazol-5-yl]-acetamid] are the same in inhibition at 10 µM: 100% for the first, 100% for the second.

Going from `Cc1cccc(Cl)c1S(=O)(=O)Cc1noc(C(=O)NC2CCC(N3CCCC3)CC2(C)C)n1` (stereo not shown) [CC-20, 3-[[(2-Chlor-6-methyl-phenyl)sulfonyl]-methyl]-N-(2,2-dimethyl-4-pyrrolidin-1-yl-cyclohexyl)-[1,2,4]oxadiazol-5-carbonsäure amid] to `Cc1cc(S(=O)(=O)Cc2noc(C(=O)NC3CCC(N4CCCC4)CC3(C)C)n2)c(C)cc1Cl` (stereo not shown) [CC-22, 3-[[(4-Chlor-2,5-dimethyl-phenyl)sulfonyl]-methyl]-N-(2,2-dimethyl-4-pyrrolidin-1-yl-cyclohexyl)-[1,2,4]oxadiazol-5-carbonsäure amid], the inhibition at 10 µM rises from 89% to 100%.

`COc1cc(C)c(S(=O)(=O)Cc2noc(C(=O)NC3CCC(N4CCCC4)CC3(C)C)n2)c(C)c1` (stereo not shown) [CC-21, N-(2,2-Dimethyl-4-pyrrolidin-1-yl-cyclohexyl)-3-[[(4-methoxy-2,6-dimethyl-phenyl)sulfonyl]-methyl]-[1,2,4]oxadiazol-5-carbonsäure amid] and `COc1cc(C)c(S(=O)(=O)Cc2noc(CC(=O)NC3CCC(N4CCCC4)CC3(C)C)n2)c(C)c1` (stereo not shown) [CC-23, N-(2,2-Dimethyl-4-pyrrolidin-1-yl-cyclohexyl)-2-[3-[[(4-methoxy-2,6-dimethyl-phenyl)sulfonyl]-methyl]-[1,2,4]oxadiazol-5-yl]-acetamid] are the same in inhibition at 10 µM: 100% for the first, 100% for the second.

`COc1cc(C)c(S(=O)(=O)Cc2nc(CC(=O)NC3CCC(N4CCCC4)CC3(C)C)no2)c(C)c1` (stereo not shown) [CC-26, N-(2,2-Dimethyl-4-pyrrolidin-1-yl-cyclohexyl)-2-[5-[[(4-methoxy-2,6-dimethyl-phenyl)sulfonyl]-methyl]-[1,2,4]oxadiazol-3-yl]-acetamid] and `COc1cc(C)c(S(=O)(=O)Cc2nc(CC(=O)NC3CCC(N4CCN(C)CC4)CC3(C)C)no2)c(C)c1` (stereo not shown) [CC-33, N-[2,2-Dimethyl-4-(4-methyl-piperazin-1-yl)-cyclohexyl]-2-[5-[[(4-methoxy-2,6-dimethyl-phenyl)sulfonyl]-methyl]-[1,2,4]oxadiazol-3-yl]-acetamid] are the same in inhibition at 10 µM: 100% for the first, 100% for the second.

`COCCN1CCC(NC(=O)Cc2noc(CS(=O)(=O)c3c(C)cc(OC)cc3C)n2)C(C)(C)C1` (stereo not shown) [CC-27, 2-[5-[[(4-Methoxy-2,6-dimethyl-phenyl)sulfonyl]-methyl]-[1,2,4]oxadiazol-3-yl]-N-[1-(2-methoxy-ethyl)-3,3-dimethyl-piperidin-4-yl]-acetamid] and `COCCN1CCC(NC(=O)Cc2nnc(CS(=O)(=O)c3c(C)cc(OC)cc3C)o2)C(C)(C)C1` (stereo not shown) [CC-31, 2-[5-[[(4-Methoxy-2,6-dimethyl-phenyl)sulfonyl]-methyl]-[1,3,4]oxadiazol-2-yl]-N-[1-(2-methoxy-ethyl)-3,3-dimethyl-piperidin-4-yl]-acetamid] are the same in inhibition at 10 µM: 100% for the first, 100% for the second.

`COc1cc(C)c(S(=O)(=O)Cc2nc(CC(=O)NC3CCC(N(C)C)CC3)no2)c(C)c1` (stereo not shown) [CC-28, N-(4-Dimethylamino-cyclohexyl)-2-[5-[[(4-methoxy-2,6-dimethyl-phenyl)sulfonyl]-methyl]-[1,2,4]oxadiazol-3-yl]-acetamid] and `COc1cc(C)c(S(=O)(=O)Cc2nnc(CC(=O)NC3CCC(N(C)C)CC3)o2)c(C)c1` (stereo not shown) [CC-34, N-(4-Dimethylamino-cyclohexyl)-2-[5-[[(4-methoxy-2,6-dimethyl-phenyl)sulfonyl]-methyl]-[1,3,4]oxadiazol-2-yl]-acetamid] are the same in inhibition at 10 µM: 100% for the first, 100% for the second.

`COc1cc(C)c(S(=O)(=O)Cc2nnc(CC(=O)NC3CCC(N4CCCC4)CC3(C)C)o2)c(C)c1` (stereo not shown) [CC-29, N-(2,2-Dimethyl-4-pyrrolidin-1-yl-cyclohexyl)-2-[5-[[(4-methoxy-2,6-dimethyl-phenyl)sulfonyl]-methyl]-[1,3,4]oxadiazol-2-yl]-acetamid] and `COc1cc(C)c(S(=O)(=O)Cc2nc(CC(=O)NC3CCC(N4CCCC4)CC3)no2)c(C)c1` (stereo not shown) [CC-32, 2-[5-[[(4-Methoxy-2,6-dimethyl-phenyl)sulfonyl]-methyl]-[1,2,4]oxadiazol-3-yl]-N-(4-pyrrolidin-1-yl-cyclohexyl)-acetamid] are the same in inhibition at 10 µM: 100% for the first, 100% for the second.

Work on `COc1cc(C)c(S(=O)(=O)Cc2nc(CC(=O)NC3CCN(C(C)=O)CC3(C)C)no2)c(C)c1` (stereo not shown) [CC-30, N-(1-Acetyl-3,3-dimethyl-piperidin-4-yl)-2-[5-[[(4-methoxy-2,6-dimethyl-phenyl)sulfonyl]-methyl]-[1,2,4]oxadiazol-3-yl]-acetamid] yielded an inhibition at 10 µM of 90%.
